Data on three molecules can be found in ChEMBL document CHEMBL3112428, “Biological evaluation of diazene derivatives as anti-tubercular compounds” (Eur J Med Chem, 2014).

Common to all, as to type: functional, organism-based
Test [1] deals with Mycobacterium tuberculosis. The test can be described thus: Antituberculosis activity against multidrug-resistant Mycobacterium tuberculosis LAM1 assessed as growth inhibition at <= 10 ug/ml measured everyday by BACTEC assay.
In test [2] the test system is Mycobacterium tuberculosis. Nature of the test: Antituberculosis activity against multidrug-resistant Mycobacterium tuberculosis LAM1 assessed as growth inhibition at 0.1 ug/ml measured everyday by BACTEC assay.
For test [3], the system named is Mycobacterium tuberculosis. The test can be described thus: Antituberculosis activity against multidrug-resistant Mycobacterium tuberculosis LAM1 assessed as growth inhibition at 1 to 5 ug/ml measured everyday by BACTEC assay.

Active and inactive are the calls of the source. The calls are words filed in the database; no cut-off is given here.

As to `CCOC(=O)/N=N/C(=O)Nc1ccc(C)cc1`, in test [1], the “growth inhibition (GI)” value was “inactive”.
On to `NNC(=O)c1ccncc1` [ISONIAZID], for which the “growth inhibition (GI)” value in test [2] is “inactive”.
Turning to `O=C(/N=N/c1ccc(C(F)(F)F)cc1)Nc1ccccc1`, in test [3], the “growth inhibition (GI)” value is “Active”.
